Patent publication US20120122860A1, “SOLID FORMS OF SULFONAMIDES AND AMINO ACIDS” (Plexxikon, Inc., priority 2009, published 2012)

Tests used:
TEC = target: T1, TEC (Homo sapiens, UniProt P42680); test: Kinase activity assay, TEC
T1 sequence (P42680 1-631): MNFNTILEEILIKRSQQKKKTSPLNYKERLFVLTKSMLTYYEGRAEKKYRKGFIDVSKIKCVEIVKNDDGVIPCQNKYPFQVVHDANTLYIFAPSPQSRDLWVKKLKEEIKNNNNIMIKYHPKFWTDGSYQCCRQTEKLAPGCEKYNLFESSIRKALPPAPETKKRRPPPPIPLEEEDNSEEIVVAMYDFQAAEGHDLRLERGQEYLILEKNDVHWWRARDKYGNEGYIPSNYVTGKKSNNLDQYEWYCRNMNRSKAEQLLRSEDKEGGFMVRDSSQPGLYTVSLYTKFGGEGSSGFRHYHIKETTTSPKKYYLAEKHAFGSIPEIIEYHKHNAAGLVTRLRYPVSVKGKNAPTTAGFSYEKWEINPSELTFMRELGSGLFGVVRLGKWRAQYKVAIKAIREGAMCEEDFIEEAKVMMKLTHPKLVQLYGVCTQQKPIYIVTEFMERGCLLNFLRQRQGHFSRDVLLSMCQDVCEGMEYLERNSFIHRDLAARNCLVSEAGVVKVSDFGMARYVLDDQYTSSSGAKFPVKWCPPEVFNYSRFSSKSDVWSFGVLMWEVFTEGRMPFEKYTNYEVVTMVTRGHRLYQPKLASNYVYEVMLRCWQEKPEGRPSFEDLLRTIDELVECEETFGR

B-Raf = B-Raf (Homo sapiens, UniProt P15056); test: Kinase activity assay, B-Raf; format: biochemical; conditions: read-out: activity toward kinase B-Raf, IC50
PI3Kα = PI3Kα (Homo sapiens, UniProt P42336); test: Kinase activity assay, PI3Kα
Sequence of PI3Kα (P42336 whole entry): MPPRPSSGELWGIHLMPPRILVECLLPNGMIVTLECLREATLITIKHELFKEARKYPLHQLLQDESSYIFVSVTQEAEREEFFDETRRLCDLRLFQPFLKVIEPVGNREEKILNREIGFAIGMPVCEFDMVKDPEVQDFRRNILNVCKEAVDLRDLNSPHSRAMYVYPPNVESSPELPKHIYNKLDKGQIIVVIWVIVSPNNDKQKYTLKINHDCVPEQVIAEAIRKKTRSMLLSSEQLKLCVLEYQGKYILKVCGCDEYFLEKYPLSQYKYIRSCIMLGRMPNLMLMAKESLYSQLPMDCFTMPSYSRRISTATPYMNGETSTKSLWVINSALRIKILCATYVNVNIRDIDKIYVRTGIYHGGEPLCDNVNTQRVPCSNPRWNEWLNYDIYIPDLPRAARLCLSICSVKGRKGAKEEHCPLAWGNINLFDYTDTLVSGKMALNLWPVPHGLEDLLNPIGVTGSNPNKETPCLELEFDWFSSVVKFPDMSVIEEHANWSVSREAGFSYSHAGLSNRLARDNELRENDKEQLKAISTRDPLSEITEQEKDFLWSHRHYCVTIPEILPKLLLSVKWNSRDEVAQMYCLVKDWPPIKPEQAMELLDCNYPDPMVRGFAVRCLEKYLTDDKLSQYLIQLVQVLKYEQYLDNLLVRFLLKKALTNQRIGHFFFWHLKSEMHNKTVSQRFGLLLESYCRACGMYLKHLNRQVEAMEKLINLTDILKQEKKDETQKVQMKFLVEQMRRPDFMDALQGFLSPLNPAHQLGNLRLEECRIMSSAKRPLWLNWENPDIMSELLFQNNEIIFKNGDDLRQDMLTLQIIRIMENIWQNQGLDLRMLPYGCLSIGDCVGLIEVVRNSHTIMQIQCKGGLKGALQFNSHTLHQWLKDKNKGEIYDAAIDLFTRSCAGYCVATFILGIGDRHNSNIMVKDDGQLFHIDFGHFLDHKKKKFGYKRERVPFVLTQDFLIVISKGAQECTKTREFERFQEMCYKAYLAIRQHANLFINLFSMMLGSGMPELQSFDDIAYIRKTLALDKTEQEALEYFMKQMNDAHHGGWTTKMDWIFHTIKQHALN
Sequence of PI3Kα (P27986 whole entry partner): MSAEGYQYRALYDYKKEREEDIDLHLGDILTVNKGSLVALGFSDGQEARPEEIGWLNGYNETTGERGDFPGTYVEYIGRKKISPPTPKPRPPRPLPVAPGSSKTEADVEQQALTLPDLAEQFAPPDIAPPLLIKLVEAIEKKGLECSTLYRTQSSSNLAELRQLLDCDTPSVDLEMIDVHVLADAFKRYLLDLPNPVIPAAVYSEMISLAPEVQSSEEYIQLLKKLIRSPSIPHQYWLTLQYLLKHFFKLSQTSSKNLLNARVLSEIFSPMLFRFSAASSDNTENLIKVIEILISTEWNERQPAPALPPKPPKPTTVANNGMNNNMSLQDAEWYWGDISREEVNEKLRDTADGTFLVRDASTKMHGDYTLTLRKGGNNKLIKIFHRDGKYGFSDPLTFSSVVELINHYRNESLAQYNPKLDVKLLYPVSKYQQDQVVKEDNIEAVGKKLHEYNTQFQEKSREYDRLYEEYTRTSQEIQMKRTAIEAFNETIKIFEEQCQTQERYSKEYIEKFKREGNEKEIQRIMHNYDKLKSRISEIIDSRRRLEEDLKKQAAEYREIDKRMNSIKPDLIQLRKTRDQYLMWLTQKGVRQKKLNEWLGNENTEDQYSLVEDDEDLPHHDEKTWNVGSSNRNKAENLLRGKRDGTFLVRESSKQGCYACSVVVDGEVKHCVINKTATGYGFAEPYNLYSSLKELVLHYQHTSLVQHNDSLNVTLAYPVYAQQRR

Src = Src (Homo sapiens, UniProt P12931); test: Kinase activity assay, Src
B-Raf V600E = B-Raf V600E (Homo sapiens, UniProt P15056, V600E); test: Kinase activity assay, B-Raf V600E; format: biochemical; conditions: read-out: activity toward kinase B-Raf V600E, IC50
C-Raf = C-Raf (Homo sapiens, UniProt P04049); test: Kinase activity assay, C-Raf
Btk = Btk (Homo sapiens, UniProt Q06187); test: Kinase activity assay, Btk
Sequence of Btk (Q06187 whole entry): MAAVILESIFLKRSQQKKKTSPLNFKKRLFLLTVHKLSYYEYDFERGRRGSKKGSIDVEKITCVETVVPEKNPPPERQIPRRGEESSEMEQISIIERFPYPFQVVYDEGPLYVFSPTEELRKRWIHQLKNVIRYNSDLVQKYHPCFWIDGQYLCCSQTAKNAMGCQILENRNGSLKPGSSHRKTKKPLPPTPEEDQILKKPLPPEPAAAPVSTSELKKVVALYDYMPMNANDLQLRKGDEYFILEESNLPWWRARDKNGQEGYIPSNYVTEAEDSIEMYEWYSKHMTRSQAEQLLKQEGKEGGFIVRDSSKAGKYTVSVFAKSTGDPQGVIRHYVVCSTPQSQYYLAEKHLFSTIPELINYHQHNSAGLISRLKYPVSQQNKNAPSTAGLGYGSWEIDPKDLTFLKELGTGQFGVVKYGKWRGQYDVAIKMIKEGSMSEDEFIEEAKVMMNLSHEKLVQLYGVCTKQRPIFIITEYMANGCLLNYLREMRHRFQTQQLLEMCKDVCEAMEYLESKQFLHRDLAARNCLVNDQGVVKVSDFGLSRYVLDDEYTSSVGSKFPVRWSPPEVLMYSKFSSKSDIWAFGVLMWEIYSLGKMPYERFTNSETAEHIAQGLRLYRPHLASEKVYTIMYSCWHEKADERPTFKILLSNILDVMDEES

A-Raf = target: T2, A-Raf (Homo sapiens, UniProt P10398); test: Kinase activity assay, A-Raf
T2 sequence (P10398 1-606): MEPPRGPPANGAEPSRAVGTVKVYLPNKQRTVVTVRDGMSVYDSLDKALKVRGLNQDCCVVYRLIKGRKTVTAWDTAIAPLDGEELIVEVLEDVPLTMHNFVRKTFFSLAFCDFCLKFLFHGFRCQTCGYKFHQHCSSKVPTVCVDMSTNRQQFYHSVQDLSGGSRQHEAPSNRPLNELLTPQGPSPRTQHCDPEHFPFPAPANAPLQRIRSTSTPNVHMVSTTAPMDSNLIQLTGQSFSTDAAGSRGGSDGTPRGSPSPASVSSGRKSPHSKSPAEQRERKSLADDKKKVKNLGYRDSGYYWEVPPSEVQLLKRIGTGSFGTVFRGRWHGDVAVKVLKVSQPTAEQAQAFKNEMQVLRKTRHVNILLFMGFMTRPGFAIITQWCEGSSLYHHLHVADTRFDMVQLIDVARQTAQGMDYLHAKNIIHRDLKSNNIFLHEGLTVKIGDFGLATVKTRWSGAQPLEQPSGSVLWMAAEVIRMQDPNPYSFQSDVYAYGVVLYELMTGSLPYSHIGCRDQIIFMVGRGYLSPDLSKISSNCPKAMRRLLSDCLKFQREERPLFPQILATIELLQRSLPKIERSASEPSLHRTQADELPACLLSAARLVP

MAP4K4 = MAP4K4 (Homo sapiens, UniProt O95819); test: Kinase activity assay, MAP4K4
Sequence of MAP4K4 (O95819 whole entry): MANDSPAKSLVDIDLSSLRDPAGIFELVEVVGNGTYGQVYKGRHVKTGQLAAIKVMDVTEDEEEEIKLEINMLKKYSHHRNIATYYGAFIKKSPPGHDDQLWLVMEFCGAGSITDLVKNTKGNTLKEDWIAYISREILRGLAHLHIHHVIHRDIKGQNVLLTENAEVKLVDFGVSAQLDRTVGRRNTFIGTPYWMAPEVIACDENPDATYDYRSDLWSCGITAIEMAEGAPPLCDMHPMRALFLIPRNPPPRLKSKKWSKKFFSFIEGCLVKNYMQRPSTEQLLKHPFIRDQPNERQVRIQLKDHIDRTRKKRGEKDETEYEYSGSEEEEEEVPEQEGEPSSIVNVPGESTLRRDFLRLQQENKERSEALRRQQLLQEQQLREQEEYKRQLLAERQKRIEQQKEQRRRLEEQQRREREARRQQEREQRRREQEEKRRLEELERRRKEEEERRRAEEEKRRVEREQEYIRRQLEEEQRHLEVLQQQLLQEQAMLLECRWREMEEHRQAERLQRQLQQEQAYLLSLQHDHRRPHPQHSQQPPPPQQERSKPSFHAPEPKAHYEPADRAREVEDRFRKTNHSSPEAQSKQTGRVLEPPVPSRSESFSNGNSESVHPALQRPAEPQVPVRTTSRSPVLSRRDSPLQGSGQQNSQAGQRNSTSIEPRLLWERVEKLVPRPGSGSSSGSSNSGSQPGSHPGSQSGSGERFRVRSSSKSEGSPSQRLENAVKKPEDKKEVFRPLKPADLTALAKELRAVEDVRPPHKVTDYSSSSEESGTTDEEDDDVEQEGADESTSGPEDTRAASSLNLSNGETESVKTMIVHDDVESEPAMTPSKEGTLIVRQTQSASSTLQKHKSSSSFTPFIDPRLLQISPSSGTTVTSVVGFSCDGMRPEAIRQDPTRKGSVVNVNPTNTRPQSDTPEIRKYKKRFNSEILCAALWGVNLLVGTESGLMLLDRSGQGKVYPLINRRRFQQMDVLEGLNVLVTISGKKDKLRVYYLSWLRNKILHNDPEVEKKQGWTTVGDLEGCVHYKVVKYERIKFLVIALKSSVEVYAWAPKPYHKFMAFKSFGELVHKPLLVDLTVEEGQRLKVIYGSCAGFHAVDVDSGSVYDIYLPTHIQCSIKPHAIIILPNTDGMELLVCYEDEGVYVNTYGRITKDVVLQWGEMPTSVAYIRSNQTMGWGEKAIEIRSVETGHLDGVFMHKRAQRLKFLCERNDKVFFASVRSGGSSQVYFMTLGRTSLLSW

Kdr = Kdr (Homo sapiens, UniProt P35968); test: Kinase activity assay, Kdr
Fms = Fms (Homo sapiens, UniProt P07333); test: Kinase activity assay, Fms
Kit = Kit (Homo sapiens, UniProt P10721); test: Kinase activity assay, Kit
Sequence of Kit (P10721 26-976): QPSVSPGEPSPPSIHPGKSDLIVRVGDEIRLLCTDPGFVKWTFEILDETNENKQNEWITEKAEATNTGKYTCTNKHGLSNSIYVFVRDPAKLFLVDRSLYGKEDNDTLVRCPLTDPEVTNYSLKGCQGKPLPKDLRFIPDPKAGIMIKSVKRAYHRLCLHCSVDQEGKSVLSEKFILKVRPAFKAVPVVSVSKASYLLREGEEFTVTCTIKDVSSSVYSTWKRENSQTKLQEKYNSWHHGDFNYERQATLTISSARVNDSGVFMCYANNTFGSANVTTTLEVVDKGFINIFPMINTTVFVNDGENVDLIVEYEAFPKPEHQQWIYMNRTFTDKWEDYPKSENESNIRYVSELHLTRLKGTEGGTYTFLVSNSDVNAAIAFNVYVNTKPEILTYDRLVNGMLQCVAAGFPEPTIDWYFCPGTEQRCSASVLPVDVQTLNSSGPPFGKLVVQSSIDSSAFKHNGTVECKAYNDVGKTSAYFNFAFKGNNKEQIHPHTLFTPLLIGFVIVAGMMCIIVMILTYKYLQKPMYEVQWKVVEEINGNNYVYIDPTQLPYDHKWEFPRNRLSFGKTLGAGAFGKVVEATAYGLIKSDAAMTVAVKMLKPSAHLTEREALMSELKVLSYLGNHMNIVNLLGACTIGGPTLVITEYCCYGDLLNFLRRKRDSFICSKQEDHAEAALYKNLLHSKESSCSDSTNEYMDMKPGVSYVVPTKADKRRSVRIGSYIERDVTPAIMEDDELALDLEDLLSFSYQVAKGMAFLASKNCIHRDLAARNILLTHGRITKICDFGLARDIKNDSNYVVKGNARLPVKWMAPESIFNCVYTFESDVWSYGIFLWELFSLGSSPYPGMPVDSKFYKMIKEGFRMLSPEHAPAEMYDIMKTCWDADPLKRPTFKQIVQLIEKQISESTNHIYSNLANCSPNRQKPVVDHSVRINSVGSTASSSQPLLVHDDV

Measured: IC50

COc1ncc(-c2cnc3[nH]cc(C(=O)c4c(F)ccc(NS(=O)(=O)CC(F)(F)F)c4F)c3c2)cn1 [P-2342, 2,2,2-Trifluoro-ethanesulfonic acid {2,4-difluoro-3-[5-(2-methoxy-pyrimidin-5-yl)-1H-pyrrolo[2,3-b]pyridine-3-carbonyl]-phenyl}-amide]
≤ 10 µM: TEC | B-Raf | PI3Kα | Src | B-Raf V600E | C-Raf

COc1ccnc2[nH]cc(C(=O)c3c(F)ccc(NS(=O)(=O)c4cc(F)ccc4F)c3F)c12 [P-2022, N-[2,4-Difluoro-3-(4-methoxy-1H-pyrrolo[2,3-b]pyridine-3-carbonyl)-phenyl]-2,5-difluoro-benzenesulfonamide]
not listed: PI3Kα
≤ 10 µM: all other assays above

CS(=O)(=O)c1cccc(-c2cnc3[nH]cc(C(=O)c4cccc(NS(=O)(=O)c5cccnc5)c4)c3c2)c1 [P-2149, Pyridine-3-sulfonic acid {3-[5-(3-methanesulfonyl-phenyl)-1H-pyrrolo[2,3-b]pyridine-3-carbonyl]-phenyl}-amide]
≤ 10 µM: MAP4K4 | B-Raf | Kdr | PI3Kα | Src | Fms | Kit

CCS(=O)(=O)Nc1ccc(F)c(C(=O)c2c[nH]c3ncc(-c4cnc(OC)nc4)cc23)c1F [P-2286, Ethanesulfonic acid {2,4-difluoro-3-[5-(2-methoxy-pyrimidin-5-yl)-1H-pyrrolo[2,3-b]pyridine-3-carbonyl]-phenyl}-amide]
≤ 10 µM: Btk | B-Raf | Kdr | PI3Kα | Src | B-Raf V600E | C-Raf

NC(=O)c1cccc(-c2cnc3[nH]cc(C(=O)c4cccc(NS(=O)(=O)c5cccnc5)c4)c3c2)c1 [P-2147, 3-{3-[3-(Pyridine-3-sulfonylamino)-benzoyl]-1H-pyrrolo[2,3-b]pyridin-5-yl}-benzamide]
not listed: TEC | A-Raf | Fms
≤ 10 µM: all other assays above

CCCS(=O)(=O)Nc1ccc(F)c(C(=O)c2c[nH]c3ncc(-c4ccc(O)nc4)cc23)c1F [P-2234, Propane-1-sulfonic acid {2,4-difluoro-3-[5-(6-hydroxy-pyridin-3-yl)-1H-pyrrolo[2,3-b]pyridine-3-carbonyl]-phenyl}-amide]
not listed: TEC | Btk
≤ 10 µM: all other assays above

COc1ncc(-c2cnc3[nH]cc(C(=O)c4c(F)ccc(NS(=O)(=O)C5CCC5)c4F)c3c2)cn1 [P-2373, Cyclobutanesulfonic acid {2,4-difluoro-3-[5-(2-methoxy-pyrimidin-5-yl)-1H-pyrrolo[2,3-b]pyridine-3-carbonyl]-phenyl}-amide]
≤ 10 µM: TEC | B-Raf | Kdr | PI3Kα | Src | B-Raf V600E | C-Raf

COc1ncc(-c2cnc3[nH]cc(C(=O)c4c(F)ccc(NS(=O)(=O)c5ccc(F)cc5)c4F)c3c2)cn1 [P-2040, N-{2,4-Difluoro-3-[5-(2-methoxy-pyrimidin-5-yl)-1H-pyrrolo[2,3-b]pyridine-3-carbonyl]-phenyl}-4-fluoro-benzenesulfonamide]
≤ 10 µM: TEC | B-Raf | PI3Kα | Src | B-Raf V600E | C-Raf

COc1ncc(-c2cnc3[nH]cc(C(=O)c4c(F)ccc(NS(=O)(=O)CCC(F)(F)F)c4F)c3c2)cn1 [P-2333]
not listed: Btk | A-Raf | MAP4K4 | Fms
≤ 10 µM: all other assays above

Cc1cnc2[nH]cc(C(=O)c3c(F)ccc(NS(=O)(=O)N4CCCC4)c3F)c2c1 [P-2379, Pyrrolidine-1-sulfonic acid [2,4-difluoro-3-(5-methyl-1H-pyrrolo[2,3-b]pyridine-3-carbonyl)-phenyl]-amide]
not listed: PI3Kα | MAP4K4 | Fms
≤ 10 µM: all other assays above

C#Cc1cnc2[nH]cc(C(=O)c3c(F)ccc(NS(=O)(=O)CCC)c3F)c2c1 [P-2260, Propane-1-sulfonic acid [3-(5-ethynyl-1H-pyrrolo[2,3-b]pyridine-3-carbonyl)-2,4-difluoro-phenyl]-amide]
not listed: PI3Kα | MAP4K4
≤ 10 µM: all other assays above

COc1ncc(-c2cnc3[nH]cc(C(=O)c4c(F)ccc(NS(C)(=O)=O)c4F)c3c2)cn1 [P-2295, N-{2,4-Difluoro-3-[5-(2-methoxy-pyrimidin-5-yl)-1H-pyrrolo[2,3-b]pyridine-3-carbonyl]-phenyl}-methanesulfonamide]
≤ 10 µM: Btk | B-Raf | Kdr | PI3Kα | B-Raf V600E | C-Raf
